{"source": "patent US7910723B2", "about": "“IG20 splice variants therapeutics for cancer” (The Board of Trustees of the University of Illinois, priority 2006, dated 2011)", "key": {"HEK293 cells": {"test_system": "HEK293 cells", "assay": "Cell death of HEK293 cells transfected with MADD constructs, Trypan Blue exclusion", "format": "cell-based", "details": "HEK293, 48 h after transfection", "method": "(A) HEK293 cells were transfected with various MADD constructs. Cell death was determined 48 h after transfection by Trypan Blue exclusion. *p<0.05 vs control. (B) Apoptosis analyzed by Cell Death Detection ELISA. *p<0.05 vs control. (C) Phosphorylatable but not the nonphosphorylatable MADD could rescue cell death upon endogenous MADD knockdown. HeLa cells were infected with the lentivirus harboring MADD shRNAi (RNAi) or its scrambled form (Scrambled RNAi). 24 h after infection, cells were transfected with the constructs of wtMADD-R or MADD3A-R. 48 h after transfection, cell death was determined by Trypan Blue exclusion. *p<0.05 vs RNAi alone. (D) Inhibition of Akt or PI3K could abolish the ability of wtMADD-R to rescue cell death upon endogenous MADD knockdown. HeLa cells were infected with the lentivirus harboring MADD shRNA (RNAi). 24 h after infection, cells were infected with the adenovirus harboring DN-Akt, and transfected with wtMADD-R. LY (10 μM) was added 6 h after transfection. 48 h after transfection, cell death was determined by Trypan Blue exclusion. Data are expressed as the mean±SEM of three independent experiments.\nTo see whether phosphorylation is required for the prosurvival function of MADD, WT and mutant MADD were tested. […] Since knockdown of endogenous MADD can cause cell death, it was tested whether the wtMADD or MADD3A could rescue this cell death. Only the shRNA resistant wtMADD (wtMADD-R) and not the MADD3A-R could rescue cell death upon endogenous MADD knockdown (FIG. 14C), which was abrogated in the presence either LY or DN-Akt (FIG. 14D). Taken together, the prosurvival function of MADD is dependent upon its phosphorylation by Akt.\nCell culture and viability assay. HEK293, HeLa and PA-1 cells were cultured. Cell death was determined by Trypan Blue exclusion and the numbers of Trypan Blue-positive and -negative cells were counted using a haemocytometer."}, "DR4": {"test_system": "DR4", "assay": "Association of exogenous MADD with DR4 in HEK293 cells (immunoprecipitation)", "format": "cell-based", "method": "(A) Phosphorylation status of MADD could influence its binding to DR4. HEK293 cells were transfected with wtMADD or MADD mutants. 36 h after transfection, the cells were harvested for immunoprecipitation using an anti-DR4 antibody followed by immunoblotting using an anti-YFP antibody to detect exogenous MADD. The membrane was reprobed with an anti-DR4 antibody to show the protein loading. (B) PI3K can influence the association of exogenous MADD with DR4. HEK293 cells were transfected with wtMADD. Twenty four hours after transfection, the cells were serum starved for 20 h. Further, they were treated with LY (10 μM) for 1 h, IGF-1 (150 ng/ml) for 20 minutes. Immunoprecipitation using an anti-DR4 antibody was followed by immunoblotting using anti-YFP or anti-DR4 antibody. (C) Akt can influence exogenous MADD association with DR4. HEK293 cells were co-transfected with wtMADD along with DN-Akt or the empty vector pcDNA3.1 (pcDNA). Thirty six hours after transfection, the cells were harvested for immunoprecipitation using anti-DR4 antibody followed by immunoblotting with an anti-YFP or an anti-DR4 antibody. (D) PI3K can influence the association of endogenous MADD with DR4. HeLa cells were serum starved for 20 h, then treated with LY (10 μM) for 1 h, IGF-1 (150 ng/ml) for 20 minutes. Immunoprecipitation using an anti-DR4 antibody was followed by immunoblotting with an anti-MADD or an anti-DR4 antibody. (E) Akt can influence the association of endogenous MADD with DR4. HeLa cells were transfected with DN-Akt or pcDNA. Thirty six hours after transfection, the cells were collected for immunoprecipitation using an anti-DR4 antibody followed by immunoblotting with an anti-MADD antibody.\nMADD can bind to DR4 and thereby block the activation of the extrinsic apoptotic pathway. […] Stimulation of PI3K by IGF-1 increased, while inhibition by LY reduced, the association between wtMADD and DR4 (FIG. 15B). […] This interaction was reduced in the presence of LY (FIG. 15D) or DN-Akt (FIG. 15E).\nImmunoprecipitation. Immunoprecipitations were performed using standard procedures. The samples were precleared with 10% (vol/vol) Protein-A agarose (Roche) for 1 h on a rocking platform. Specific antibodies were added and rocked for 1 h. Immunoprecipitates were captured by incubating with 10% (vol/vol) Protein-A agarose for an hour. The agarose beads were spun down and washed three times with NET/NP40 buffer (150 mM NaCl, 2 mM EDTA, 50 mM Tris-HCl pH 7.5, 0.1% NP-40). The antigens were released and denatured by adding SDS sample buffer. Immunoblots were prepared and analysed as described above."}, "Akt": {"biological_target": "Akt (Homo sapiens, UniProt P31749)", "sequence (P31749 whole entry)": "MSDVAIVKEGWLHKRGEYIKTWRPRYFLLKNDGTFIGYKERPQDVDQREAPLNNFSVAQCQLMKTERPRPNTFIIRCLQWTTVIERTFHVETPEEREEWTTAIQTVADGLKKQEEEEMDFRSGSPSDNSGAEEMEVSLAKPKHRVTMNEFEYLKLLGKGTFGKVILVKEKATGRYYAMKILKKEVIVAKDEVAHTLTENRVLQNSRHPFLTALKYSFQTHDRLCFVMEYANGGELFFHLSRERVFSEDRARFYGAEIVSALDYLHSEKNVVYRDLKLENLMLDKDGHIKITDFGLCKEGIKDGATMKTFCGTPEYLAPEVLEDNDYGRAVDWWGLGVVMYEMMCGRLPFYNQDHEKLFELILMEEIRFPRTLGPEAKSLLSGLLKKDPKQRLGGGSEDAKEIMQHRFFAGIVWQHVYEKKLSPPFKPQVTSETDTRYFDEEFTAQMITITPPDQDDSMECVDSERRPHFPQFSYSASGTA", "assay": "Phosphorylation of MADD in vitro by Akt (kinase assay)", "format": "biochemical", "details": "GST-tagged recombinant MADD, rAkt, 1 h at 30° C.", "method": "(A) In vitro phosphorylation of rMADD by Akt. GST-wtMADD or -MADD mutants were expressed in bacteria, purified, and then incubated with rAkt and γ[^32P] ATP. After 1 h incubation at 30° C., the products were resolved on SDS-PAGE and ^32P-labeled proteins were visualized by autoradiography. (B) MADD is labeled by [^32P]orthophosphate in vivo. HEK293 cells were transfected with wtMADD or MADD mutant constructs. Twenty-four hours after transfection cells were incubated with 0.3 mCi/ml [32P]orthophosphate for 6 h. MADD was immunoprecipitated with an anti-YFP antibody. The precipitated MADD was separated by SDS-PAGE, transferred to a nitrocellulose membrane, and subjected to autoradiography. Loaded MADD was visualized by staining the same membrane with an anti-YFP antibody. (C) HEK293 cells were transfected with cDNAs for wtMADD or MADD mutants and. 36 h later the cells were harvested for immunoblotting using the anti-phospho-S-70, -T-173 or -T-1041 antibodies. An anti-YFP antibody was used to detect exogenous MADD. (D) HEK293 cells were transfected with wtMADD and 24 hours later cells were serum starved for 20 h. Subsequently, they were treated with LY (10 μM) for 1 h and/or IGF-1 (150 ng/ml) for 20 minutes. The cell lysates were immunoblotted and probed with anti phospho-specific antibodies or an anti-YFP antibody. (E) HEK293 cells were co-transfected with wtMADD along with dominant negative Akt (DN-Akt) or the empty vector pcDNA3.1 (pcDNA). Immunoblots were probed with the anti phospho-specific antibodies or an anti-YFP antibody. (F) HeLa cells were serum starved for 20 h, treated with LY (10 μM) for 1 h, IGF-1 (150 ng/ml) for 20 minutes. Immunoblot was probed with the anti phospho-specific antibodies or an anti-MADD antibody.\nTo test whether MADD is a substrate of Akt, an in vitro assay was employed to test whether Akt could directly phosphorylate MADD. […] It was tested whether MADD could be phosphorylated in vivo. […] Second, three antibodies that specifically reacted with phosphorylated S70 (anti-phospho S70), T173 (anti-phospho T173) or T1041 (anti-phospho T1041) were raised, respectively. The phosphopeptides, CRQRRMpSLRDDTS (SEQ ID NO: 7) (S-70), GSRSRNSpTLTSL (SEQ ID NO: 8) (T-173), and KRKRSPpTESVNTP (SEQ ID NO: 9) (T-1041) were used to immunize the rabbits. Antisera were depleted of antibodies that recognize non-phosphorylated MADD by negatively selecting the antibodies using an identical non-phosphorylated peptide affinity column. Antibodies in the flow through were tested to ensure that they specifically bind only to the corresponding phosphorylated peptide and not the non-phosphorylated couterpart. […]"}, "ERK1/2": {"test_system": "ERK1/2", "assay": "TNF-α induced ERK phosphorylation in HeLa cells (immunoblot)", "format": "cell-based", "details": "TNF-α 50 ng/mL, untransduced", "method": "(A) Time-kinetics of TNF-α induced ERK activation. HeLa cells (3×10^6 per 100 mm dish) were serum starved for 6 h and were either left untreated or treated with TNF-α (50 ng/mL) for different time periods as indicated. Cell lysates were analyzed for phosphorylated ERK or total ERK by immunoblot. (B) Down-modulation of endogenous IG20-SVs in HeLa cells. One microgram of total RNA obtained from HeLa cells 48 h post-transduction was used for reverse-transcription-polymerase chain reaction. The products were separated on a 2% agarose gel. Amplification of all four IG20-SVs was done using F2-B2 primers. […] HeLa cells (3×10^6 per 100 mm dish) were either untransduced or transduced with different lentiviruses expressing SCR, Mid and 13L ShRNA for different time periods as indicated. At the end of each time period, the cells were serum starved for 6 h and were either left untreated or treated with TNF-α (50 ng/mL) for 15 min. Cell lysates were analyzed for phosphorylated ERK or total ERK by immunoblot. The data shown is representative of at least 3 independent experiments.\n(A) HeLa cells (3×10^6 per 100 mm dish) were transduced with different lentiviruses expressing SCR, Mid and 16E ShRNA for 48 h. The cells were then serum starved for 6 h and were either left untreated or treated with TNF-α (50 ng/mL) for 15 min. Cell lysates were analyzed for phosphorylated ERK or total ERK by immunoblot. (B) PA-1 cells (5×10^6 per 100 mm dish) were transduced with different lentiviruses expressing SCR, Mid and 13L ShRNA for 48 h. The cells were then serum starved for 6 h and were either left unstimulated or stimulated with TNF-α (50 ng/mL) for 15 min. Cell lysates were analyzed for phosphorylated ERK or total ERK by immunoblot. […] Cell lysates were analyzed for phosphorylated ERK or total ERK by immunoblot. […]\nTo gain insight into the time kinetics of TNF-α induced ERK phosphorylation, HeLa cells were treated with TNF-α (50 ng/mL) for different time periods. […] Down-modulation of IG20 transcripts upon treatment with different ShRNA expressing lentiviruses was monitored by RT-PCR. […]"}}}
{"substance": "MADD3A: MADD mutant, all three residues (S70, T173, T1041) converted to alanine", "values": [{"measurement": "Cell death upon enforced expression", "setting": "HEK293 cells", "value": "significant cell death"}, {"measurement": "Association of exogenous MADD with DR4", "setting": "DR4", "value": "almost non-existant"}]}
{"substance": "MADD70A: MADD mutant S70A", "values": [{"measurement": "In vitro phosphorylation by Akt", "setting": "Akt", "value": "reduced or absent"}, {"measurement": "Cell death upon enforced expression", "setting": "HEK293 cells", "value": "minimal effects on cell death"}]}
{"substance": "MADD173A: MADD mutant T173A", "values": [{"measurement": "In vitro phosphorylation by Akt", "setting": "Akt", "value": "reduced or absent"}, {"measurement": "Cell death upon enforced expression", "setting": "HEK293 cells", "value": "minimal effects on cell death"}]}
{"substance": "MADD1041A: MADD mutant T1041A", "values": [{"measurement": "In vitro phosphorylation by Akt", "setting": "Akt", "value": "reduced or absent"}, {"measurement": "Cell death upon enforced expression", "setting": "HEK293 cells", "value": "minimal effects on cell death"}]}
{"substance": "TNF-α [reference compound]", "values": [{"measurement": "Time of maximum ERK phosphorylation", "setting": "ERK1/2", "value": 15, "unit": "min"}]}
{"substance": "wtMADD: recombinant wild-type MADD", "values": [{"measurement": "In vitro phosphorylation by Akt", "setting": "Akt", "value": "phosphorylated by Akt"}, {"measurement": "Cell death upon enforced expression", "setting": "HEK293 cells", "value": "could not induce cell death"}, {"measurement": "Association of exogenous MADD with DR4", "setting": "DR4", "value": "can associate with DR4"}]}
